Measured values: patent US6620828B2, “Thiazole compounds and pharmaceutical compositions for inhibiting protein kinases and methods for their use” (Agouron Pharmaceuticals, Inc., priority 1999, dated 2003)

Tests used:
[1] = biological target: T1, phosphorylated VEGF-R2Δ50 (FLVK-P) (Homo sapiens, UniProt P35968, DEL940-989/E990V); assay: VEGF-R2 coupled spectrophotometric (FLVK-P) assay; format: biochemical; details: for Ki: Table 1, spectrophotometric assay
T1 construct: VEGF-R2Δ50 contains residues 806-939 and 990-1171; made in house; host or cells: baculovirus/insect cells
T1 sequence (P35968 with tags, fused parts or gaps DEL940-989/E990V limits assumed): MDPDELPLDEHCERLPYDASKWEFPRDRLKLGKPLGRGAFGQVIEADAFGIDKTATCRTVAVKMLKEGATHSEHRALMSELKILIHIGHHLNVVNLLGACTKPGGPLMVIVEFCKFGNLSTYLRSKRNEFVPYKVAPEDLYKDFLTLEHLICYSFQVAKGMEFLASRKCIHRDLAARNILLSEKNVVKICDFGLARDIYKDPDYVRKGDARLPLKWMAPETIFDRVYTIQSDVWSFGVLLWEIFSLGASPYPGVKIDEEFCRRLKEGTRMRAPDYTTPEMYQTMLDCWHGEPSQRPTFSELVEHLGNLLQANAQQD
Method in brief: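 Baculovirus-expressed human VEGF-R2Δ50 (residues 806-939/990-1171, E990V) was autophosphorylated with 3 mM ATP, 40 mM MgCl2 for 2 h at 4° C. ADP formation was coupled via PK/LDH to NADH oxidation, read at 340 nm, with 5.1 mM poly(E4Y1), 1 mM ATP, 25 mM MgCl2, Hepes pH 7.5. Ki came from activity across compound concentrations.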

[2] = system: human umbilical vein endothelial cells (HUVEC); assay: HUVEC proliferation assay; format: cell-based; details: Homo sapiens, HUVEC
Method in brief: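 Exponentially growing HUVEC were serum-starved 24 h (F12K + 1% FBS), pre-treated 1 h with compound (0.1% DMSO final), then stimulated with 6 ng/ml VEGF. Proliferation was read 72 h later by MTT reduction (A595). IC50 came from seven 0.5-log concentrations in triplicate; screens gave % inhibition relative to VEGF-only and starved wells.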

[3] = biological target: T2, unphosphorylated VEGF-R2Δ50 (FLVK) (Homo sapiens, UniProt P35968, DEL940-989/E990V); assay: VEGF-R2 coupled spectrophotometric assay, unphosphorylated enzyme (FLVK); format: biochemical; details: for inhibition at 0.05 µM: at 50 nM
T2 construct: VEGF-R2Δ50 contains residues 806-939 and 990-1171; made in house; host or cells: baculovirus/insect cells
T2 sequence (P35968 with tags, fused parts or gaps DEL940-989/E990V limits assumed): as above
Description: VEGF-R2 Construct for Assay: This construct determines the ability of a test compound to inhibit tyrosine kinase activity. A construct (VEGF-R2Δ50) of the cytosolic domain of human vascular endothelial growth factor receptor 2 (VEGF-R2) lacking the 50 central residues of the 68 residues of the kinase insert domain was expressed in a baculovirus/insect cell system. Of the 1356 residues of full-length VEGF-R2, VEGF-R2Δ50 contains residues 806-939 and 990-1171, and also one point mutation (E990V) within the kinase insert domain relative to wild-type VEGF-R2. Autophosphorylation of the purified construct was performed by incubation of the enzyme at a concentration of 4 μM in the presence of 3 mM ATP and 40 mM MgCl2 in 100 mM Hepes, pH 7.5, containing 5% glycerol and 5 mM DTT, at 4° C. for 2 h. […] See Parast et al., Biochemistry, 37, 16788-16801 (1998).
The production of ADP from ATP that accompanies phosphoryl transfer was coupled to oxidation of NADH using phosphoenolpyruvate (PEP) and a system having pyruvate kinase (PK) and lactic dehydrogenase (LDH). The oxidation of NADH was monitored by following the decrease of absorbance at 340 nm (e340=6.22 cm^−1 mM^−1) using a Beckman DU 650 spectrophotometer. Assay conditions for phosphorylated VEGF-R2Δ50 (indicated as FLVK-P in the tables below) were the following: 1 mM PEP; 250 μM NADH; 50 units of LDH/mL; 20 units of PK/mL; 5 mM DTT; 5.1 mM poly(E4Y1); 1 mM ATP; and 25 mM MgCl2 in 200 mM Hepes, pH 7.5. Assay conditions for unphosphorylated VEGF-R2Δ50 (indicated as FLVK in the tables) were the following: 1 mM PEP; 250 μM NADH; 50 units of LDH/mL; 20 units of PK/mL; 5 mM DTT; 20 mM poly(E4Y1); 3 mM ATP; and 60 mM MgCl2 and 2 mM MnCl2 in 200 mM Hepes, pH 7.5. Assays were initiated with 5 to 40 nM of enzyme. Ki values were determined by measuring enzyme activity in the presence of varying concentrations of test compounds. The data were analyzed using Enzyme Kinetic and Kaleidagraph software.

[4] = Table 3, some entries 'Slow binder'

Structure (SMILES) | Ki [3, 4] | IC50 ([2]; Table 3) | also measured
CNC(=O)Nc1nc(N)c(-c2nc(-c3cccc(NC(=O)c4ccc(Cl)s4)c3)cs2)s1 [F(1), 5-Chloro-thiophene-2-carboxylic acid {3-[4′-amino-2′-(3-methyl-ureido)-[2,5′]bithiazolyl-4-yl]-phenyl}-amide] |  |  | Ki [1]: 0.91 nM; IC50 ([2]; Table 1): 29 nM; Ki ([3]; Table 1): 1.4 nM
COc1cc(Nc2nc(N)c(-c3nc(-c4cc(N)ccc4C)no3)s2)cc(OC)c1OC [C(6), 3-(3-amino-6-methyl-phenyl)-5-[2-[(3,4,5 trimethoxyphenyl)-amino]-4-amino-5-thiazolyl]-1,2,4-oxadiazole] | 33 nM | 300 nM | 
C#CCCCC(=O)Nc1cccc(-c2noc(-c3sc(Nc4cc(OC)c(OC)c(OC)c4)nc3N)n2)c1 [D(62), Hex-5-ynoic acid (3-{5-[4-amino-2-(3,4,5-trimethoxy-phenylamino)-thiazol-5-yl]-[1,2,4]oxadiazol-3-yl}-phenyl)-amide] |  | 500 nM | inhibition at 0.05 µM ([3]; Table 3): 20%
COc1cc(Nc2nc(N)c(-c3nc(-c4cc(NC(=O)OC(C)(C)C)c(Cl)cc4Cl)no3)s2)cc(OC)c1OC [B(15), (5-{5-[4-Amino-2-(3,4,5-trimethoxy-phenylamino)-thiazol-5-yl]-[1,2,4]oxadiazol-3-yl}-2,4-dichloro-phenyl)-carbamic acid tert-butyl ester] | 1.7 nM | 100 nM | 
COc1cc(Nc2nc(N)c(-c3nc(-c4cccc(-c5nc(C(C)C)n[nH]5)c4)no3)s2)cc(OC)c1OC [B(38), 5-{3-[3-(5-isopropyl-2H-[1,2,4]triazol-3-yl)-phenyl]-[1,2,4]oxadiazol-5-yl}-N2-(3.4,5-trimethoxy-phenyl)-thiazole-2,4-diamine] |  | > 700 nM | inhibition at 0.05 µM ([3]; Table 3): 13%
Nc1nc(Nc2cccc(-c3nn[nH]n3)c2)sc1-c1nc(-c2cccc(NC(=O)c3cccc(Cl)c3)c2)no1 [D(63), N-[3(5-{4-Amino-2-[3-(2H-tetrazol-5-yl)-phenylamino]-thiazol-5-yl]-[1,2,4]oxadiazol-3-yl)-phenyl]-3-chloro-benzamide] |  | > 10000 nM | inhibition at 0.05 µM ([3]; Table 3): 51%
COc1cc(Nc2nc(N)c(-c3nc(-c4cc(N)c(F)cc4F)no3)s2)cc(OC)c1OC [C(8), 5-[3-(5-Amino-2,4,-difluoro-phenyl)-[1,2,4]oxadiazol-5-yl]-N2-(3,4,5-trimethoxy-phenyl)-thiazole-2,4-diamine] |  | > 700 nM | inhibition at 0.05 µM ([3]; Table 3): 21%
COc1cc(Nc2nc(N)c(-c3nc(-c4cccc(-c5nc(C)n[nH]5)c4)no3)s2)cc(OC)c1OC [B(37)] |  | > 1000 nM | inhibition at 0.05 µM ([3]; Table 3): 36%
COc1cc(Nc2nc(N)c(-c3nc(-c4cc(NC(=O)OC(C)(C)C)ccc4C)no3)s2)cc(OC)c1OC [B(6), 3-(2-methyl-5-(tert-butyloxycarboxyamino)-phenyl)-5-[2-[(3,4,5 trimethoxyphenyl)-amino]-4-amino-5-thiazolyl]-1,2,4-oxadiazole] | 0.61 nM | 56 nM | 
COc1cc(Nc2nc(N)c(-c3nc(-c4cc(NC(=O)OC(C)(C)C)c(F)cc4F)no3)s2)cc(OC)c1OC [B(13), (5-{5-[4-Amino-2-(3,4,5-trimethoxy-phenylamino)-thiazol-5-yl]-[1,2,4]oxadiazol-3-yl}-2,4-difluoro-phenyl)-carbamic acid tert-butyl ester] | 1.3 nM | 300 nM | 
CC(=O)Nc1nc(N)c(-c2nc(-c3cccc(NC(=O)c4ccc(Cl)s4)c3)cs2)s1 [F(2), N-[3-(2′-Acetylamino-4′-amino-[2,5′]bithiazolyl-4-yl)-phenyl]-5-chloro-thiophene-2-carboxamide] |  |  | Ki [1]: 3.9 nM; IC50 ([2]; Table 1): 86 nM; Ki ([3]; Table 1): 4.71 nM
COc1cccc(C(=O)Nc2ccc(C)c(-c3noc(-c4sc(NC(C)C)nc4N)n3)c2)c1 [B(22), N-{3-[5-(4-Amino-2-isopropylamino-thiazol-5-yl)-[1,2,4]oxadiazol-3-yl]-4-methyl-phenyl}-3-methoxy-benzamide] |  | > 1000 nM | inhibition at 0.05 µM ([3]; Table 3): 54%
COc1cc(Nc2nc(N)c(-c3nc(-c4cc(N)ccc4Cl)no3)s2)cc(OC)c1OC [C(7), 5-[3-(5-Amino-2-chloro-phenyl)-[1,2,4]oxadiazol-5-yl]-N2-(3,4,5-trimethoxy-phenyl)-thiazole-2,4-diamine] | 17 nM | 300 nM | 
COc1cc(Nc2nc(N)c(-c3nc(-c4cccc(-c5nc(CC(C)C)n[nH]5)c4)no3)s2)cc(OC)c1OC [B(39)] | 6.3 nM | > 100 nM | 

Second part, led by results:

Ki [3, 4] | Structure (SMILES) | IC50 ([2]; Table 3) | also measured
0.16 nM | COc1cccc(C(=O)Nc2cc(-c3noc(-c4sc(NC(=O)NCC(C)C)nc4N)n3)c(F)cc2F)c1 [O(7), N-(5-{5-[4-Amino-2-(3-isobutyl-ureido)-thiazol-5-yl]-[1,2,4]oxadiazol-3-yl}-2,4-difluoro-phenyl)-3-methoxy-benzamide] | 5.2 nM | 
2.2 nM | Cc1cccc(C(=O)Nc2cccc(-c3noc(-c4sc(NC(=O)Nc5ccccc5)nc4N)n3)c2)c1 [F(12), N-(3-{5-[4-Amino-2-(3-phenyl-ureido)-thiazol-5-yl]-[1,2,4]oxadiazol-3-yl}-phenyl)-3-methyl-benzamide] | > 300 nM | 
1.1 nM | CC[C@H](CO)NC(=O)Nc1nc(N)c(-c2nc(-c3cc(NC(=O)c4cccc(OC)c4)c(F)cc3F)cs2)s1 [O(21), N-(5-{4′-Amino-2′-[3-((R)-1-hydroxymethyl-propyl)-ureido]-[2,5′]bithiazolyl-4-yl}-2,4-difluoro-phenyl)-3-methoxy-benzamide] |  | inhibition at 0.05 µM ([1]; Table 3, at 50 nM): 61%
0.45 nM | COc1cccc(C(=O)Nc2cc(-c3noc(-c4sc(NC(=O)N[C@H]5CC[C@H](O)CC5)nc4N)n3)c(F)cc2F)c1 [O(11), N-[5-(5-{4-Amino-2-[3-(trans-4-hydroxy-cyclohexyl)-ureido]-thiazol-5-yl}-[1,2,4]oxadiazol-3-yl)-2,4-difluoro-phenyl]-3-methoxy-benzamide] | 14 nM | 
0.42 nM | COc1cccc(C(=O)Nc2cc(-c3noc(-c4sc(NC(=O)NCc5cccnc5)nc4N)n3)c(F)cc2F)c1 [O(9), N-(5-{5-[4-Amino-2-(3-pyridin-3-ylmethyl-ureido)-thiazol-5-yl]-[1,2,4]oxadiazol-3-yl}-2,4-difluoro-phenyl)-3-methoxy-benzamide] | 4.3 nM | 
2.7 nM | COc1cc(Nc2nc(N)c(-c3nc(-c4cccc(NC(=O)c5ccc(CN6CCOCC6)cc5)c4)no3)s2)cc(OC)c1OC [D(76)] | > 1000 nM | 
8 nM | COc1cc(Nc2nc(N)c(-c3nc(-c4cc(N)c(F)cc4Cl)no3)s2)cc(OC)c1OC [C(9), 5-[3-(5-Amino-2-chloro-4-fluoro-phenyl)-[1,2,4]oxadiazol-5-yl]-N-(3,4,5-trimethoxy-phenyl)-thiazole-2,4-diamine] | 300 nM | 
94 nM | COc1cccc(C(=O)Nc2cc(-c3noc(-c4sc(NC(=O)NCCO)nc4N)n3)c(F)cc2F)c1 [O(10), N-[5-(5-{4-Amino-2-[3-(2-hydroxy-ethyl)-ureido]-thiazol-5-yl}-[1,2,4]oxadiazol-3-yl)-2,4-difluoro-phenyl]-3-methoxy-benzamide] | 6.7 nM | 
